Non-standard residues stand in square brackets, D forms with d. Residues, ends and D or L forms follow the SMILES beside them. *: point of attachment. Dolaproine = CO[C@@H]([C@@H]1CCCN1)[C@@H](C)C(=O)O; Dil = CC[C@H](C)[C@H](NC)[C@@H](CC(=O)O)OC; X1 = C[C@@H](N*)[C@@H](O)c1ccccc1; NMeV = CN[C@H](C(=O)O)C(C)C
Key:
[1] = test system: BxPC3 and HPAFII (pancreas) cells co-cultured with macrophages; test: Macrophage antigen presentation after co-culture with treated pancreas tumor cells; assay type: cell-based; conditions: BxPC3 and HPAFII treated 24 hours; macrophages harvested 4 days after co-culture
Description: (§1) Macrophages were enriched from PBMCs from 2 healthy donors by adhering PBMCs to cell culture-grade plastic. Non-adherent cells were removed 24 hours later, leaving a population of cells enriched for macrophages.
(§2) BxPC3 and HPAFII (pancreas) cells were treated with MMAE, vincristine, and Paclitaxel for 24 hours. Cells were washed and harvested, and subsequently co-cultured with the enriched macrophages prepared above. Macrophages were harvested 4 days after co-culture and assayed for immune activation by flow cytometry. Level of antigen-presentation (as measured by frequency of MHCII-expressing cells) was quantified and normalized to macrophages that were co-cultured with untreated tumor cells.

[2] = test system: MCF7 cells; test: ATP secretion from MCF7 cells; assay type: cell-based
[3] = test system: T-24 tumor cells co-cultured with macrophages; test: Cytokine and chemokine production in macrophage co-culture with treated T-24 cells; assay type: cell-based; conditions: T-24 co-culture supernatant after 24 hours, ELISA, normalized to untreated
Description: T-24 (bladder) cells were treated with MMAE or an MMAE-containing ADC (ASG-22ME) for 48 hours and analyzed for ATP secretion. […] T-24 cells were also treated with MMAE, an MMAE-containing ADC (ASG22ME, Enfortumab vedotin), vincristine, and Paclitaxel for 24 hours. Cells were washed and harvested, and subsequently co-cultured with the enriched macrophages as above. Macrophages were harvested 4 days after co-culture and assayed for immune activation by flow cytometry. Level of antigen-presentation (as measured by frequency of MHCII-expressing macrophages) was quantified and normalized to macrophages that were co-cultured with untreated tumor cells. […] Supernatant from the co-culture of macrophages and dying T-24 tumor cells was harvested after 24 hours and assayed for levels of cytokine and chemokine production by ELISA and normalized to macrophages that were co-cultured with untreated tumor cells.

[4] = test system: MiaPaca-CHOP-luciferase cells subcutaneously engrafted; test: Tumoral CHOP luciferase signal in engrafted MiaPaca-CHOP-luciferase tumors; assay type: in vivo, NOD/SCID/gamma-chain deficient mice; conditions: intratumorally; MMAE 0.36 mg/kg, vincristine 1.0 mg/kg, Paclitaxel 10 mg/kg
Description: MiaPaca-CHOP-luciferase cells were subcutaneously engrafted into NOD/SCID/gamma-chain deficient mice. Subcutaneous tumors were treated intratumorally with MMAE (0.36 mg/kg), vincristine (1.0 mg/kg), and Paclitaxel (10 mg/kg) and tumoral luciferase signal was monitored over time.

[5] = test system: MiaPaca-CHOP-luciferase cells; test: CHOP-driven luciferase reporter assay of severe ER stress; assay type: cell-based; conditions: after 16 hours
Description: Severe ER stress leads to upregulation of CHOP, and initiates mitochondrial apoptosis. MiaPaca2 pancreatic tumor cells were engineered to express a CHOP-driven luciferase reporter system (purchased from Signosis, Inc.) that allows for quantifiable monitoring of severe ER stress. MiaPaca-CHOP-luciferase cells were treated with MMAE, vincristine, and Paclitaxel, and assayed for luciferase expression after 16 hours.

[6] = test system: A2058, SK-MEL-5, and SK-MEL-28 (skin) cells co-cultured with macrophages; test: Macrophage antigen presentation after co-culture with treated skin tumor cells; assay type: cell-based; conditions: tumor cells treated 24 hours; macrophages harvested 4 days after co-culture; normalized to untreated
Description: as §1
as §2, with “A2058, SK-MEL-5,” for “BxPC3”, “SK-MEL-28 (skin)” for “HPAFII (pancreas)”, “The level” for “Level”

SMILES: CC[C@H](C)[C@@H]([C@@H](CC(=O)N1CCC[C@H]1[C@H](OC)[C@@H](C)C(=O)N[C@H](C)[C@@H](O)c1ccccc1)OC)N(C)C(=O)[C@@H](NC(=O)[C@@H](NC)C(C)C)C(C)C [MMAE, monomethyl auristatin E] (H-[NMeV]V[Dil][Dolaproine]-X1)
- Antigen-presentation (frequency of MHCII-expressing cells) [1]: increase in antigen-presentation in 1/2 tumor cell lines
- Secretion of ATP [2]: increased secretion
- Cytokine and chemokine production [3]: increase of the indicated cytokines and chemokines that was more robust than treatment with Paclitaxel
- Severe ER stress in engrafted tumors (tumoral luciferase signal over time) [4]: rapidly elicited severe ER stress
- Luciferase signal as a proxy of severe ER stress induction [5]: dose-dependent increase in luciferase signal
- Antigen-presentation (frequency of MHCII-expressing cells) [6]: increase in antigen-presentation in 2/3 tumor cell lines that was more robust than Paclitaxel
